# Test: physchem
# Format: physicochemical
smiles,measurement,setting,value
"C[C@H]1NCc2cc(-c3ccc4c(=O)c(C(=O)O)cn(C5CC5)c4c3OC(F)F)ccc21 [des-quinolone, 1-Cyclopropyl-8-(difluoromethoxy)-7-[(1R)-1-methyl-2,3-dihydro-1H-5-isoindolyl]-4-oxo-1,4-dihydro-3-quinolinecarboxylic acid methanesulfonate monohydrate]",solubility,aqueous buffer,~70 µg/mL
same,solubility,water,~17400 µg/mL

# From US7175856B2, “Palatable oral suspension and method” (Bristol-Myers Squibb Company, priority 2002, dated 2007)
